Legend:
[1] = target: T1, Endothelin receptor type B (Rattus norvegicus, UniProt P21451); test: In vitro inhibitory potency for preventing sarafotoxin S6c induced constriction of rat tracheal rings (ETB receptor); type: functional, tissue-based, Trachea; conditions: read-out: pA2 (converted)
T1 sequence (P21451 whole entry): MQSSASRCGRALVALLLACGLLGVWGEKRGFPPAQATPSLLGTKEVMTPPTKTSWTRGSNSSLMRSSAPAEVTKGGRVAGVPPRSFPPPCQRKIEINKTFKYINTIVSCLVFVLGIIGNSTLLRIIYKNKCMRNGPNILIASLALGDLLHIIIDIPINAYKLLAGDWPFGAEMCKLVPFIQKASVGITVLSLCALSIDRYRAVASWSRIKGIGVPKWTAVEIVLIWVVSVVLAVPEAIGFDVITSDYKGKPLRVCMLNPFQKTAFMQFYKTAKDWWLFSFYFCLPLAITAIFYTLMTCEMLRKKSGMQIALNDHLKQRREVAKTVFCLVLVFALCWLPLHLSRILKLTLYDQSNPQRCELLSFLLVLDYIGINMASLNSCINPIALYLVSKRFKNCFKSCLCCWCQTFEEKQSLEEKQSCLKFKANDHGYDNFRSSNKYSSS

Endothelin-1 receptor [2] = target: T2, Endothelin-1 receptor (Homo sapiens, UniProt P25101); test: Inhibitory concentration required against [125I]ET1 binding to membranes of CHO cells expressing human ETA receptor; type: cell membranes
T2 sequence (P25101 whole entry): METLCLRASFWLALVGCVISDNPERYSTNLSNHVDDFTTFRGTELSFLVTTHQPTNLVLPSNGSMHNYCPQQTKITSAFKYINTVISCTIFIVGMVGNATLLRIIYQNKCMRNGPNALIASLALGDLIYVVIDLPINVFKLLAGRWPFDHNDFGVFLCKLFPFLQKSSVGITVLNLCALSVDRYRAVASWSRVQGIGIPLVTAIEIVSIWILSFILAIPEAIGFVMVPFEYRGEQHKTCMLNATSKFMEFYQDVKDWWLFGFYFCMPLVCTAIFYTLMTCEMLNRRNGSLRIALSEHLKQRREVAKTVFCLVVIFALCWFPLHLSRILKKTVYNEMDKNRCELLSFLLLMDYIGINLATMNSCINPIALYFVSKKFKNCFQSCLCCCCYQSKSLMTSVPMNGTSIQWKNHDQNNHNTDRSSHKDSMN

[3] = target: T3, Endothelin receptor type B (Homo sapiens, UniProt P24530); test: Inhibitory concentration required against [125I]ET1 binding to membranes of CHO cells expressing human ETB receptor; type: cell membranes
T3 sequence (P24530 whole entry): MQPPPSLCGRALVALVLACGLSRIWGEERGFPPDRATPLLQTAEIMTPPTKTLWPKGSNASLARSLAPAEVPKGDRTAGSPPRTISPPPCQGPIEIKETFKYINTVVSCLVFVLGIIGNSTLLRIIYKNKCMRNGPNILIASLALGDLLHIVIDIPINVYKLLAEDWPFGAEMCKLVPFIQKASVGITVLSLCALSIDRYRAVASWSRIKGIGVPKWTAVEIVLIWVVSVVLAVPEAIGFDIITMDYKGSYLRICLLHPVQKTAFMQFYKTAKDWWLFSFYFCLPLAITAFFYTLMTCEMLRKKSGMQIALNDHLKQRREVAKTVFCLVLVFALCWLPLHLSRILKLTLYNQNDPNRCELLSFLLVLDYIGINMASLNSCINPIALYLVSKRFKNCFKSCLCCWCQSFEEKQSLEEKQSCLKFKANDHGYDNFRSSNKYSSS

Endothelin-1 receptor [4] = target: T4, Endothelin-1 receptor (Rattus norvegicus, UniProt P26684); test: In vitro inhibitory potency for preventing ET-1 induced constriction of rat aortic rings (ETA receptor); type: functional; conditions: read-out: pA2 (converted)
T4 sequence (P26684 whole entry): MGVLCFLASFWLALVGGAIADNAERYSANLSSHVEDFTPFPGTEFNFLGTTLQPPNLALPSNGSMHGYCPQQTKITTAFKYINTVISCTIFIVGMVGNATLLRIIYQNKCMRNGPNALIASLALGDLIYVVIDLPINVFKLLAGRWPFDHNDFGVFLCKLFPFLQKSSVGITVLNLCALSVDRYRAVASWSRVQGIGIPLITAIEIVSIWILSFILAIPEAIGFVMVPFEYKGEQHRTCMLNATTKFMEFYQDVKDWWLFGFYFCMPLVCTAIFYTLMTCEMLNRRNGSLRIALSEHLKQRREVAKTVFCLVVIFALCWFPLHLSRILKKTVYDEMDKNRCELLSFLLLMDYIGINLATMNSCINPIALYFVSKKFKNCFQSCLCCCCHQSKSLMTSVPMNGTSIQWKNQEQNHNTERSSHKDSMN

Molecule `CCS(=O)(=O)NCCOc1nc(C2CC2)nc(NS(=O)(=O)c2ccc(C(C)C)cn2)c1Oc1ccccc1OC` has a Kb [1] of 269 nM, an IC50 (Endothelin-1 receptor [2]) of 50 nM and an IC50 [3] of 397 nM. The Kb (Endothelin-1 receptor [4]) was 347 nM.
For `CCS(=O)(=O)NCCCOc1nc(C2CC2)nc(NS(=O)(=O)c2ccc(C(C)C)cn2)c1Oc1ccccc1OC`, the Kb [1] was 269 nM and the Kb (Endothelin-1 receptor [4]) was 105 nM.
Work on `CCCS(=O)(=O)NCCOc1nc(-c2cc(OC)c(OC)c(OC)c2)nc(NS(=O)(=O)c2ccc(C(C)C)cn2)c1Oc1ccccc1OC` yielded a Kb [1] of 33.1 nM, an IC50 [3] of 24 nM and a Kb (Endothelin-1 receptor [4]) of 3160 nM.
Work on `CCS(=O)(=O)NCCOc1nc(C2CC2)nc(NS(=O)(=O)c2ccc(C)cn2)c1Oc1ccccc1OC` yielded an IC50 (Endothelin-1 receptor [2]) of 582 nM and an IC50 [3] of 5660 nM.
With `COc1ccccc1Oc1c(NS(=O)(=O)c2ccc(C(C)C)cn2)nc(-c2cc(OC)c(OC)c(OC)c2)nc1OCCNS(=O)(=O)c1cccs1` the Kb [1] was 38.9 nM and the IC50 [3] was 7 nM.
In the case of `COc1ccccc1Oc1c(NS(=O)(=O)c2ccc(C(C)C)cn2)nc(C2CC2)nc1OCCCNS(=O)(=O)c1ccc(C)cc1`, the Kb [1] is reported as 49 nM, the IC50 [3] is reported as 19 nM and the Kb (Endothelin-1 receptor [4]) is reported as 309 nM.
`CCCS(=O)(=O)NCCOc1nc(C2CC2)nc(NS(=O)(=O)c2ccc(C(C)C)cn2)c1Oc1ccccc1OC` showed a Kb [1] of 363 nM, an IC50 (Endothelin-1 receptor [2]) of 80 nM and an IC50 [3] of 84 nM. For the same molecule, the Kb (Endothelin-1 receptor [4]) was 288 nM.
With `CCS(=O)(=O)NCCCOc1nc(-c2ncccn2)nc(NS(=O)(=O)c2ccc(C(C)(C)C)cc2)c1Oc1ccccc1OC` the IC50 (Endothelin-1 receptor [2]) was 1590 nM and the IC50 [3] was 101 nM.
Work on `COc1ccccc1Oc1c(NS(=O)(=O)c2ccc(C)cn2)nc(-c2ccncc2)nc1OCCNS(=O)(=O)c1ccc(C)cc1` yielded an IC50 [3] of 1540 nM.
Molecule `COc1ccccc1Oc1c(NS(=O)(=O)c2ccc(C)cn2)nc(-c2cc(OC)c(OC)c(OC)c2)nc1OCCNS(=O)(=O)c1cccs1` has an IC50 (Endothelin-1 receptor [2]) of 2770 nM and an IC50 [3] of 351 nM.
Molecule `CCCS(=O)(=O)NCCOc1nc(C2CC2)nc(NS(=O)(=O)c2ccc(C)cn2)c1Oc1ccccc1OC` has an IC50 (Endothelin-1 receptor [2]) of 1320 nM and an IC50 [3] of 4670 nM.
For `COc1ccccc1Oc1c(NS(=O)(=O)c2ccc(C)cn2)nc(-c2ccncc2)nc1OCCNS(=O)(=O)c1cccs1`, the IC50 (Endothelin-1 receptor [2]) was 2840 nM and the IC50 [3] was 3680 nM.
With `COc1ccccc1Oc1c(NS(=O)(=O)c2ccc(C)cn2)nc(Cc2ccc3c(c2)OCO3)nc1OCCNS(=O)(=O)c1cccs1` the IC50 [3] was 2110 nM.
For `CCCS(=O)(=O)NCCCOc1nc(C2CC2)nc(NS(=O)(=O)c2ccc(C(C)C)cn2)c1Oc1ccccc1OC`, the Kb [1] was 69.2 nM and the Kb (Endothelin-1 receptor [4]) was 245 nM.
With `COc1ccccc1Oc1c(NS(=O)(=O)c2ccc(C(C)(C)C)cc2)nc(C2CC2)nc1OCCCNS(=O)(=O)c1cccs1` the IC50 (Endothelin-1 receptor [2]) was 14 nM and the IC50 [3] was 2 nM.
In the case of `CCS(=O)(=O)NCCOc1nc(N2CCOCC2)nc(NS(=O)(=O)c2ccc(C(C)C)cn2)c1Oc1ccccc1OC`, the IC50 (Endothelin-1 receptor [2]) is reported as 19 nM and the IC50 [3] is reported as 122 nM.
For `COc1ccccc1Oc1c(NS(=O)(=O)c2ccc(C)cn2)nc(C2CC2)nc1OCCNS(=O)(=O)c1cccs1`, the IC50 (Endothelin-1 receptor [2]) was 1850 nM and the IC50 [3] was 8240 nM.
For `COc1ccccc1Oc1c(NS(=O)(=O)c2ccc(C(C)C)cn2)nc(N2CCOCC2)nc1OCCCNS(=O)(=O)c1ccc(C)cc1`, the Kb [1] was 107 nM, the IC50 (Endothelin-1 receptor [2]) was 116 nM and the IC50 [3] was 24 nM. The Kb (Endothelin-1 receptor [4]) was 4790 nM.
Molecule `COc1ccccc1Oc1c(NS(=O)(=O)c2ccc(C(C)(C)C)cc2)nc(-c2ncccn2)nc1OCCNS(=O)(=O)c1cccs1` has an IC50 [3] of 16 nM.
Molecule `CCS(=O)(=O)NCCOc1nc(-c2ncccn2)nc(NS(=O)(=O)c2ccc(C(C)(C)C)cc2)c1Oc1ccccc1OC` has an IC50 (Endothelin-1 receptor [2]) of 487 nM and an IC50 [3] of 873 nM.
In the case of `COc1ccccc1Oc1c(NS(=O)(=O)c2ccc(C(C)C)cn2)nc(C2CC2)nc1OCCCNS(=O)(=O)c1cccs1`, the Kb [1] is reported as 9.12 nM, the IC50 [3] is reported as 4 nM and the Kb (Endothelin-1 receptor [4]) is reported as 120 nM.
Work on `COc1ccccc1Oc1c(NS(=O)(=O)c2ccc(C(C)(C)C)cc2)nc(-c2ncccn2)nc1OCCCNS(=O)(=O)c1cccs1` yielded an IC50 (Endothelin-1 receptor [2]) of 86 nM and an IC50 [3] of 4 nM.
Molecule `CCCS(=O)(=O)NCCOc1nc(N2CCOCC2)nc(NS(=O)(=O)c2ccc(C)cn2)c1Oc1ccccc1OC` has an IC50 (Endothelin-1 receptor [2]) of 51 nM and an IC50 [3] of 931 nM.
For `COc1ccccc1Oc1c(NS(=O)(=O)c2ccc(C(C)C)cn2)nc(N2CCOCC2)nc1OCCNS(=O)(=O)c1ccc(C)cc1`, the IC50 (Endothelin-1 receptor [2]) was 1380 nM and the IC50 [3] was 9 nM.
In the case of `COc1ccccc1Oc1c(NS(=O)(=O)c2ccc(C(C)C)cn2)nc(-c2cc(OC)c(OC)c(OC)c2)nc1OCCNS(=O)(=O)c1ccc(C)cc1`, the IC50 [3] is reported as 4 nM and the Kb (Endothelin-1 receptor [4]) is reported as over 10000 nM.
`CCCS(=O)(=O)NCCOc1nc(N2CCOCC2)nc(NS(=O)(=O)c2ccc(C(C)C)cn2)c1Oc1ccccc1OC` gave a Kb [1] of 240 nM and a Kb (Endothelin-1 receptor [4]) of 832 nM.
